Measurements published in patent publication US8768431B2, “Systems and methods for tissue imaging” (The Regents of the University of Michigan, priority 2007, dated 2014).

Columns and labels:
9L tumors [1] = assay: fDM / diffusion MRI of intracerebral 9L tumors after BCNU; assay type: in vivo, rat; conditions: for group mean VR: ±SEM
Procedure: (§1) Intracranial Tumor Implantation. All animal works were carried out in the animal facility of the University of Michigan (Ann Arbor, Mich.) in accordance with federal, local, and institutional guidelines. Intracerebral brain tumors were implanted in male Fischer 344 rats (Charles River Breeding Laboratories, Wilmington, Mass.) weighing between 125 and 150 g. Animals were anesthesized by intraperitoneal administration of a ketamine (87 mg/kg)/xylazine (13 mg/kg) mixture. A small skin incision was made over the right hemisphere, and a 1-mm-diameter burr hole was drilled through the skull. A sterile suspension of 1×10^5 9L cells in 5 μl of serum-free medium was introduced through a 27-gauge needle inserted to a depth of 3 mm. Rats were allowed to recover after tilling the burr hole with bone wax and suturing the skin closed.
(§2) Chemotherapy. Thirty-three animals with 9L tumors were entered into the study. When in vivo tumor volumes had reached […] were divided into four groups. Group 1 received 0.1 ml of drug vehicle (10% ethanol) and was used as a control group (n=7). Groups 2 to 4 received 6.65 mg/kg BCNU (n=7), 13.3 mg/kg BCNU (n=11), and 26.6 mg/kg BCNU (n=8), respectively, diluted in 10% ethanol. All treatments were administered by a single intraperitoneal injection on day 0. T2-weighted (T2, MRI transverse relaxation time) and diffusion MRI were performed every other day posttherapy to measure volumetric and cell density changes, respectively. Animal survival data were also obtained for all groups.
(§3) Diffusion MRI. Maps of tumor ADC values were acquired every other day up to 14 days posttherapy using a previously described method (see, e.g., Chenevert T L, et al., J Natl Cancer Inst. 2000; 92:2029-2036; herein incorporated by reference in its entirety). Briefly, a trace diffusion-weighted multislice spin echo sequence (with motion compensation and navigator echo) was used to acquire 13 slices with two different diffusion weightings [b1=100 sec/mm^2; b2=1248 sec/mm^2; image slice thickness=1 mm; image matrix=128×128 (0-256); field of view=30×30 mm; echo time=60 milliseconds]. During all MRI procedures, the animals were anesthesized with 1.5% isoflurane, and body temperature was maintained at 37° C. using a heated water-recirculating pad. The images acquired with b1 were essentially T2-weighted images, and these were used to segment the tumor from the normal brain for volumetric analysis using an “in-house” region drawing tool developed in MATLAB (Natick, Mass.).
Image Registration and fDM. An important part of fDM analysis is the registration of parametric ADC maps acquired posttherapy to baseline ADC maps acquired before treatment. Image registration was performed using an automated linear affine coregistration algorithm (MIAMI Fuse; University of Michigan, Ann Arbor, Mich.) to maximize mutual information between the two temporally distinct three-dimensional data sets (see, e.g., Meyer C R, et al., Med Image Anal. 1997; 1:195-206; herein incorporated by reference in its entirety). Following registration and tumor segmentation of voxels within the tumor both at baseline and on day 4, fDM statistics were calculated. Firstly, ADC values of voxels posttherapy were plotted as a function of baseline ADC values. These tumor voxels were then further segmented into three regions based on an upper threshold and a lower threshold of ADC change. That is, tumor voxels that had increased ADC above the upper threshold were region I (VR, red voxels), voxels that had decreased below the lower threshold were region 2 (VB, blue voxels), and all other voxels were region 3 (VG, green voxels). A comparison between treatment groups and the measurement of fDM dose dependence was accomplished to optimize the sensitivity of the thresholds used (±0.4×10^−9 m^2/sec). Normalized volumes were then calculated for each animal, and group statistics were calculated.

9L tumors [2] = assay: Animal survival of rats with intracerebral 9L tumors; assay type: in vivo, rat; conditions: for median survival: rat 9L tumors, control 7 days
Procedure: as §1, §2
(§4) Tumor Cell Kill Calculations and Statistical Analysis. The quantification of tumor cell kill from serially volumetric imaging data for each animal was accomplished as previously described (see, e.g., Ross B D, et al., Proc Natl Acad Sci USA. 1998; 95:7012-7017; herein incorporated by reference in its entirety). In brief, log(cell kill)[…]log10[Vpre/Vpost], where V represents the tumor volume from MRI. Linear least squares analysis was used to measure the statistical significance of trends in the BCNU dose dependence of fDM volume, animal survival, and log cell kill, and in the correlation of fDM response with survival and cell kill. When two groups were compared, a one-tailed Student's /test was used. Both linear least squares and Student's t test were performed using Microsoft Excel (Microsoft, Redmond, Wash.). To compare the median survival of all four animal groups, a log rank test was performed using Prism (GraphPad Software, Inc., San Diego, Calif.).

9L tumor cells = assay: MRI tumor volume and log cell kill of 9L tumors; assay type: in vivo, rat
Procedure: as §2, §3, §4

9L tumors [3] = assay: Histopathology (H&E) of fDM regions of 9L tumors; assay type: in vivo, rat; conditions: 6.67 mg/kg BCNU; ×40 objective
Procedure: Histopathology. In a separate study consisting of eight animals, two animals per treatment group were imaged pretreatment and again at 6 to 7 days posttherapy. Following the second imaging session, animals were euthanized, and the brains were fixed in 10% paraformaldehyde. After 48 hours, fixed tissues were transferred to 70% ethanol and embedded in paraffin. Formalin-fixed paraffin-embedded specimens were serially sectioned and slide-mounted. Sections were stained with hematoxylin and eosin (H&E) and compared to fDMs.

PC3^Luc tumor cells = assay: Bioluminescence imaging of PC3Luc metastatic prostate cancer model; assay type: in vivo, SCID mice; conditions: docetaxel 40 mg/kg/wk×3, n=9; controls rose continuously
Procedure: Cell Lines. PC3 cells were transfected with a luciferase-encoding pLazarus retroviral construct using Fugene 6 (Roche Applied Science, Indianapolis, Ind.) as per manufacturer's instructions. Wildtype PC3 cells were cultured in RPMI-1640 supplemented with 10% FBS whereas transfected cells (PC3^Luc were maintained in selection media supplemented with 200 μg/ml G418 (Invitrogen; Carlsbad, Calif.).
(§5) Mice. Male SCID mice (Charles River Laboratories, Wilmington, Mass.) were housed in specific pathogen free rooms at The University of Michigan AAALAC, International accredited facilities. For implantation of PC3^Luc cells, mice were anesthetized with 1.75% isotluorane/air anesthesia and 2×10^5 cells in 100 μl of sterile Dulbecco's PBS lacking Ca^+2and Mg^+2 (DPBS) were administered into the left ventricle of the heart.
Bioluminescence Detection. […] Bioluminescence studies were initiated prior to treatment for baseline values and performed throughout the experiment. For these studies, mice were anesthetized with a 2% isofluorane/air mixture and given a single i.p. dose of 150 mg/kg D-luciferin (Promega; Madison, Wis.) in normal saline. […] Results were analyzed using Living Image® software provided with the Xenogen imaging system. Signal intensity was quantified as the sum of all detected photon counts within a uniform region-of-interest (ROI) manually placed during data post processing.

[4] = tested on: PC3^Luc metastatic bone lesions; assay: fDM analysis of metastatic bone lesions of PC3Luc model; assay type: in vivo, SCID mice; conditions: for percentage of increased ADC (fDM), representative treated animal: docetaxel 40 mg/kg/wk×3
Procedure: as §5
(§6) Magnetic Resonance Imaging. […] For MRI examination, mice were anesthetized with a 2% […] and maintained at 37 C, using a heated water bed, inside a 9.4-T Varian MR scanner (120-mm clear horizontal bore, Varian, Palo Alto, Calif.) and a double-tuned volume radiofrequency coil. A trace diffusion-weighted multi-slice spin echo sequence was used to acquire 15 slices with two different diffusion weightings (b1=184 s/mm^2, =1106 s/mm^2, slice thickness=0.5 mm, image matrix64×128, field of view=15×15 mm; TE=40 ms, TR=3.5 s). The z-gadient first moment was zeroed to reduce the dominant source of motion artifact as well as a 32-point navigator echo was prepended to each phase-encode echo. The phase deviation of each navigator echo relative to their mean was subtracted from the respective image echoes prior to the phase-encode Fourier transform. Images were acquired prior to treatment and subsequently 2 times per week. The low b-factor images were essentially T2-weighted to allow tumor volume measurements. The tumor boundary was manually defined on each slice and then integrated across slices to provide a volume estimate.
Image Registration and fDM. An important part of fDM analysis is the registration of post-treatment ADC maps to baseline pretreatment ADC maps. Image registration was performed using an automated linear affine coregistration algorithm to maximize mutual information between the two temporally distinct three-dimensional data sets (see, e.g., Meyer C R, et al., Med Image Anal 1997; 1:195-206; herein incorporated by reference in its entirety). Following registration and segmentation of voxels within the tumor both at baseline and on day 4, fDM statistics were calculated (I-Response™, Cedara Software, Mississauga, Ontario). Firstly, ADC values of voxels post therapy were plotted as a function of baseline ADC values. These voxels were then further segmented into three regions based on an upper and lower threshold of ADC change. Tumor voxels with an ADC increase above the upper threshold were depicted as red, whereas voxels that had decreased below the lower threshold were depicted as blue.

[5] = tested on: PC3^Luc metastatic bone lesions; assay: MRI tumor volume of PC3Luc bone lesions; assay type: in vivo, SCID mice
Text: as §6

[6] = 6.65 mg/kg BCNU, day 4 posttreatment
[7] = 26.6 mg/kg BCNU, day 4 posttreatment
[8] = p<0.05, treated n=7 vs control n=5

## O=NN(CCCl)C(=O)NCCCl [BCNU]
9L tumors [1]; 6.65 mg/kg BCNU, day 4, control −0.8±2.7%
  mean ADC change: 10.7±2.2%
9L tumors [1]; 6.65 mg/kg BCNU, day 4, control 3.9±1.7
  group mean VR: 10.6±2.8%
9L tumors [1]; [6]
  VB (tumor volume with decreased ADC), representative animal: 2.6%
  VR (tumor volume with increased ADC), representative animal: 7.7%
9L tumors [1]; 13.3 mg/kg BCNU, day 4
  mean ADC change (ΔADC): 22.9±5.3%
  group mean VR: 28.7±8.0%
9L tumors [1]; 13.3 mg/kg BCNU, day 4 posttreatment
  VR (tumor volume with increased ADC), representative animal: 30%
9L tumors [1]; 26.6 mg/kg BCNU, day 4
  mean ADC change: 49.0±9.7%
  group mean VR: 62.0 ±9.0%
9L tumors [1]; [7]
  VB (tumor volume with decreased ADC), representative animal: 0.3%
  VR (tumor volume with increased ADC), representative animal: 90.6%
9L tumors [1]; day 4 posttreatment, threshold ±0.4×10^−9 m^2/sec, P=5.8×10^−6
  best-fit gradient of VR as a function of drug dose: 2.30 ± 0.40 kg/mg
9L tumors [2]; 6.65 mg/kg BCNU single i.p.
  median survival: 13 days posttherapy
9L tumors [2]; 13.3 mg/kg BCNU single i.p.
  median survival: 23.5 days posttherapy
9L tumors [2]; 26.6 mg/kg BCNU single i.p.
  median survival: 35.5 days posttherapy
9L tumors [2]; 6.65-26.6 mg/kg BCNU, log rank P<0.05
  animal survival relative to the control group: dose-dependent increase in animal survival
9L tumor cells; 6.65 mg/kg BCNU, control −0.09±0.04
  log cell kill: −0.25±0.08
9L tumor cells; 13.3 mg/kg BCNU
  log cell kill: 1.28±0.18
9L tumor cells; 26.6 mg/kg BCNU
  log cell kill: 3.22±0.51
9L tumor cells; 4 days posttreatment, 0-26.6 mg/kg BCNU, P=0.004
  gradient of least squares fit, normalized tumor volume as a function of dose: −4.0±1.3
9L tumors [3]
  active mitoses in low-diffusion (VB) region: 153 mitoses in 10 high-power fields
  mitoses in VR region: 96 mitoses in 10 high-power fields

## CC(=O)O[C@@]12CO[C@@H]1C[C@H](O)[C@@]1(C)C(=O)[C@H](O)C3=C(C)[C@@H](OC(=O)[C@H](O)[C@@H](NC(=O)OC(C)(C)C)c4ccccc4)C[C@@](O)([C@@H](OC(=O)c4ccccc4)[C@H]21)C3(C)C [docetaxel]
PC3^Luc tumor cells
  mean photon counts (luciferase activity): remained stable throughout the experiment
[4]; day 7 post initiation
  percentage of increased ADC (fDM), representative treated animal: 4.0%
[4]; day 14 post initiation
  percentage of increased ADC (fDM), representative treated animal: 30.0%
[4]; day 18 post initiation
  percentage of increased ADC (fDM), representative treated animal: 53.7%
[4]; [8]
  time at which fDM values differ significantly from control: 7 days post-treatment
[4]; three week treatment period, treated n=7
  mean changes in tumor diffusion by fDM: progressively increasing fDM diffusion changes
[5]; control tumors kept growing, treated tumors did not
  MRI tumor volumes, outcome of therapy: efficacious
[5]; [8]
  time at which tumor volumes differ significantly from control: 11 day post-treatment initiation
